Assay: recombinant UMI read abundance after kanamycin selection (control-corrected) (log10(CPM+1)); higher = more efficient recombination; extreme values may be limits of the assay; sequences stand for … in AGTGCAGAGAAAATCGGCCAGTTTTCTCTGCCTGCAGTCCGCATGCCGTGGGACCCCTTGGGTTCTAACCTGTTGCCTAGATTTATGCAGCGGACTGCCTTTCTCCCAAAGTGATAAACCGG…AGGTTGGTTTCACT; site = the 11-nt donor
Procedure, shortened: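 Values, expressed as log10(CPM+1), derive from recombinant UMI counts converted to CPM, averaged across replicates and scaled by control-derived factors. Plating was with IPTG (0.07 mM) plus kanamycin or unselected, two replicates each. The screen pooled donor and donor-binding-loop pairs for the IS621 bridge recombinase in Escherichia coli.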
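Note: IS621 bridge recombinase in Escherichia coli cells against a fixed T5 target plasmid.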

Going from “CCGCGGGCATGGACCGGTTTTCCCGGTAATCCGTATTTGCC (site CCGCGGGCTGG)” to “CCGCGTGCATGGACCGGTTTTCCCGGTAATCCGTATTTGCG (site CCGCGTGCTCG)”, the “recombinant UMI read abundance (log10)” value falls from 1.43 to 0.222.

Compared with “CCGCTCTCATGGACCGGTTTTCCCGGTAATCCGTATTTGTT (site CCGCTCTCTAA)”, “CCGCTGCCATGGACCGGTTTTCCCGGTAATCCGTATTTGAA (site CCGCTGCCTTT)” is lower in “recombinant UMI read abundance (log10)” value: 1.51 for the first, 0.0286 for the second.

Compared with “CCGCTTACATGGACCGGTTTTCCCGGTAATCCGTATTTGGA (site CCGCTTACTTC)”, “CCGGACCCATGGACCGGTTTTCCCGGTAATCCGTATTTGTT (site CCGGACCCTAA)” is lower in “recombinant UMI read abundance (log10)” value: 0.539 for the first, 0.0191 for the second.

“CCGGCACCATGGACCGGTTTTCCCGGTAATCCGTATTTGAT (site CCGGCACCTAT)” and “CCGGCATCATGGACCGGTTTTCCCGGTAATCCGTATTTGCG (site CCGGCATCTCG)” are within 0.2 log units of each other in “recombinant UMI read abundance (log10)” value: 0.00703 for the first, 0 for the second.

“CCGGCCGCATGGACCGGTTTTCCCGGTAATCCGTATTTGCC (site CCGGCCGCTGG)” and “CCGGGGCCATGGACCGGTTTTCCCGGTAATCCGTATTTGGT (site CCGGGGCCTAC)” are within 0.2 log units of each other in “recombinant UMI read abundance (log10)” value: 0 for the first, 0.0146 for the second.

“CCGGGTCCATGGACCGGTTTTCCCGGTAATCCGTATTTGCA (site CCAGGTCCTTG)” and “CCGGGTCCATGGACCGGTTTTCCCGGTAATCCGTATTTGCA (site CCCGGTCCTTG)” are the same in “recombinant UMI read abundance (log10)” value: 0 for the first, 0 for the second.

“CCGGGTCCATGGACCGGTTTTCCCGGTAATCCGTATTTGCA (site CCGGGTCCTTG)” and “CCGGGTCCATGGACCGGTTTTCCCGGTAATCCGTATTTGCA (site CCTGGTCCTTG)” are within 0.2 log units of each other in “recombinant UMI read abundance (log10)” value: 0.00309 for the first, 0.0157 for the second.

First: CCGGTAACATGGACCGGTTTTCCCGGTAATCCGTATTTGCG (site CCGGTAACTCG)
Second: CCGTAACCATGGACCGGTTTTCCCGGTAATCCGTATTTGGT (site CCGTAACCTAC)
The “recombinant UMI read abundance (log10)” value of the first is higher: 0.686 for the first, 0 for the second.

“CCGTAGCCATGGACCGGTTTTCCCGGTAATCCGTATTTGCC (site CCATAGCCTGG)” and “CCGTAGCCATGGACCGGTTTTCCCGGTAATCCGTATTTGCC (site CCCTAGCCTGG)” are the same in “recombinant UMI read abundance (log10)” value: 0 for the first, 0 for the second.

“CCGTAGCCATGGACCGGTTTTCCCGGTAATCCGTATTTGCC (site CCGTAGCCTGG)” and “CCGTAGCCATGGACCGGTTTTCCCGGTAATCCGTATTTGCC (site CCTTAGCCTGG)” are the same in “recombinant UMI read abundance (log10)” value: 0 for the first, 0 for the second.

Going from “CCGTATACATGGACCGGTTTTCCCGGTAATCCGTATTTGCT (site CCGTATACTAG)” to “CCGTATACATGGACCGGTTTTCCCGGTAATCCGTATTTGCT (site CCGTCTACTAG)”, the “recombinant UMI read abundance (log10)” value falls from 1.24 to 0.

“CCGTATACATGGACCGGTTTTCCCGGTAATCCGTATTTGCT (site CCGTGTACTAG)” and “CCGTATACATGGACCGGTTTTCCCGGTAATCCGTATTTGCT (site CCGTTTACTAG)” are the same in “recombinant UMI read abundance (log10)” value: 0 for the first, 0 for the second.

First: CCGTATGCATGGACCGGTTTTCCCGGTAATCCGTATTTGAA (site CCGTATGCTTT)
Second: CCGTCCCCATGGACCGGTTTTCCCGGTAATCCGTATTTGCT (site CCGTCCCCTAG)
The “recombinant UMI read abundance (log10)” value of the first is higher: 1.14 for the first, 0.00559 for the second.

“CCGTCGACATGGACCGGTTTTCCCGGTAATCCGTATTTGGG (site CAGTCGACTCC)” and “CCGTCGACATGGACCGGTTTTCCCGGTAATCCGTATTTGGG (site CCGTCGACTCC)” are within 0.2 log units of each other in “recombinant UMI read abundance (log10)” value: 0.01 for the first, 0.0232 for the second.

“CCGTCGACATGGACCGGTTTTCCCGGTAATCCGTATTTGGG (site CGGTCGACTCC)” and “CCGTCGACATGGACCGGTTTTCCCGGTAATCCGTATTTGGG (site CTGTCGACTCC)” are within 0.2 log units of each other in “recombinant UMI read abundance (log10)” value: 0.0251 for the first, 0 for the second.

Going from “CCGTTAACATGGACCGGTTTTCCCGGTAATCCGTATTTGCT (site CCGTTAACTAG)” to “CCGTTAACATGGACCGGTTTTCCCGGTAATCCGTATTTGCT (site CCGTTCACTAG)”, the “recombinant UMI read abundance (log10)” value falls from 2.18 to 0.

“CCGTTAACATGGACCGGTTTTCCCGGTAATCCGTATTTGCT (site CCGTTGACTAG)” and “CCGTTAACATGGACCGGTTTTCCCGGTAATCCGTATTTGCT (site CCGTTTACTAG)” are within 0.2 log units of each other in “recombinant UMI read abundance (log10)” value: 0.00307 for the first, 0 for the second.

“CCGTTAGCATGGACCGGTTTTCCCGGTAATCCGTATTTGTA (site CCGTTAGCTAA)” and “CCGTTAGCATGGACCGGTTTTCCCGGTAATCCGTATTTGTA (site CCGTTAGCTCA)” are within 0.2 log units of each other in “recombinant UMI read abundance (log10)” value: 0.0181 for the first, 0.00671 for the second.

Compared with “CCGTTAGCATGGACCGGTTTTCCCGGTAATCCGTATTTGTA (site CCGTTAGCTGA)”, “CCGTTAGCATGGACCGGTTTTCCCGGTAATCCGTATTTGTA (site CCGTTAGCTTA)” is higher in “recombinant UMI read abundance (log10)” value: 0 for the first, 0.601 for the second.

“CCGTTAGCATGGACCGGTTTTCCCGGTAATCCGTATTTGTC (site CCGTTAGCTAA)” and “CCGTTAGCATGGACCGGTTTTCCCGGTAATCCGTATTTGTC (site CCGTTAGCTCA)” are within 0.2 log units of each other in “recombinant UMI read abundance (log10)” value: 0.0291 for the first, 0.00762 for the second.

Going from “CCGTTAGCATGGACCGGTTTTCCCGGTAATCCGTATTTGTC (site CCGTTAGCTGA)” to “CCGTTAGCATGGACCGGTTTTCCCGGTAATCCGTATTTGTC (site CCGTTAGCTTA)”, the “recombinant UMI read abundance (log10)” value falls from 1.58 to 0.396.

Going from “CCGTTAGCATGGACCGGTTTTCCCGGTAATCCGTATTTGTT (site CCGTTAGCTAA)” to “CCGTTAGCATGGACCGGTTTTCCCGGTAATCCGTATTTGTT (site CCGTTAGCTCA)”, the “recombinant UMI read abundance (log10)” value falls from 1.02 to 0.00936.

“CCGTTAGCATGGACCGGTTTTCCCGGTAATCCGTATTTGTT (site CCGTTAGCTGA)” and “CCGTTAGCATGGACCGGTTTTCCCGGTAATCCGTATTTGTT (site CCGTTAGCTTA)” are within 0.2 log units of each other in “recombinant UMI read abundance (log10)” value: 0 for the first, 0.00339 for the second.

“CCGTTATCATGGACCGGTTTTCCCGGTAATCCGTATTTGTG (site CCGTTAACTCA)” and “CCGTTATCATGGACCGGTTTTCCCGGTAATCCGTATTTGTG (site CCGTTACCTCA)” are within 0.2 log units of each other in “recombinant UMI read abundance (log10)” value: 0.0485 for the first, 0.00831 for the second.

First: CCGTTATCATGGACCGGTTTTCCCGGTAATCCGTATTTGTG (site CCGTTAGCTCA)
Second: CCGTTATCATGGACCGGTTTTCCCGGTAATCCGTATTTGTG (site CCGTTATCTCA)
The “recombinant UMI read abundance (log10)” value of the first is lower: 0.0138 for the first, 0.662 for the second.

“CCGTTCTCATGGACCGGTTTTCCCGGTAATCCGTATTTGGA (site CCGTTCTCTTC)” and “CCGTTTACATGGACCGGTTTTCCCGGTAATCCGTATTTGGT (site CCGTTTACTAA)” are within 0.2 log units of each other in “recombinant UMI read abundance (log10)” value: 0 for the first, 0.00739 for the second.

Compared with “CCGTTTACATGGACCGGTTTTCCCGGTAATCCGTATTTGGT (site CCGTTTACTAC)”, “CCGTTTACATGGACCGGTTTTCCCGGTAATCCGTATTTGGT (site CCGTTTACTAG)” is lower in “recombinant UMI read abundance (log10)” value: 0.279 for the first, 0 for the second.

“CCGTTTACATGGACCGGTTTTCCCGGTAATCCGTATTTGGT (site CCGTTTACTAT)” and “CCGTTTCCATGGACCGGTTTTCCCGGTAATCCGTATTTGAC (site CCGTTTCCTGT)” are the same in “recombinant UMI read abundance (log10)” value: 0 for the first, 0 for the second.

“CCGTTTTCATGGACCGGTTTTCCCGGTAATCCGTATTTGCT (site CCGTTTACTAG)” and “CCGTTTTCATGGACCGGTTTTCCCGGTAATCCGTATTTGCT (site CCGTTTCCTAG)” are within 0.2 log units of each other in “recombinant UMI read abundance (log10)” value: 0 for the first, 0.00608 for the second.

“CCGTTTTCATGGACCGGTTTTCCCGGTAATCCGTATTTGCT (site CCGTTTGCTAG)” and “CCGTTTTCATGGACCGGTTTTCCCGGTAATCCGTATTTGCT (site CCGTTTTCTAG)” are the same in “recombinant UMI read abundance (log10)” value: 0 for the first, 0 for the second.

“CCTAAAGCATGGACCGGTTTTCCCGGTAATCCGTATTTGAT (site ACTAAAGCTAT)” and “CCTAAAGCATGGACCGGTTTTCCCGGTAATCCGTATTTGAT (site CATAAAGCTAT)” are the same in “recombinant UMI read abundance (log10)” value: 0 for the first, 0 for the second.

“CCTAAAGCATGGACCGGTTTTCCCGGTAATCCGTATTTGAT (site CCAAAAGCTAT)” and “CCTAAAGCATGGACCGGTTTTCCCGGTAATCCGTATTTGAT (site CCCAAAGCTAT)” are within 0.2 log units of each other in “recombinant UMI read abundance (log10)” value: 0 for the first, 0.0148 for the second.

“CCTAAAGCATGGACCGGTTTTCCCGGTAATCCGTATTTGAT (site CCGAAAGCTAT)” and “CCTAAAGCATGGACCGGTTTTCCCGGTAATCCGTATTTGAT (site CCTAAAACTAT)” are the same in “recombinant UMI read abundance (log10)” value: 0 for the first, 0 for the second.

“CCTAAAGCATGGACCGGTTTTCCCGGTAATCCGTATTTGAT (site CCTAAACCTAT)” and “CCTAAAGCATGGACCGGTTTTCCCGGTAATCCGTATTTGAT (site CCTAAAGCTAA)” are within 0.2 log units of each other in “recombinant UMI read abundance (log10)” value: 0.00391 for the first, 0 for the second.
